According to patent US20250325534A1, “MICROBIOCIDAL TETRAHYDROISOQUINOLINE DERIVATIVES” (SYNGENTA CROP PROTECTION AG, priority 2021, published 2025):

Columns and labels:
Botryotinia fuckeliana = Botryotinia fuckeliana (Botrytis cinerea) / liquid culture (gray mould); format: cell-based; conditions: 72 h, growth inhibition photometrically 3-4 days after application, read-out: control of Botryotinia fuckeliana
Procedure: Example B2: Botryotinia Fuckeliana (Botrytis cinerea)/Liquid Culture (Gray Mould) Conidia of the fungus from cryogenic storage are directly mixed into a nutrient broth (Vogels broth). After placing a DMSO solution of test compound into a microtiter plate (96-well format), the nutrient broth containing the fungal spores is added. The test plates are incubated at 24° C. and the inhibition of growth is determined photometrically 3-4 days after application.

Phaeosphaeria nodorum = Phaeosphaeria nodorum (Septoria nodorum) / wheat / leaf disc preventative (glume blotch); format: in vivo; conditions: Parastagonospora nodorum, foliar, inoculated 2 days after application
Procedure: Example B9: Phaeosphaeria nodorum (Septoria nodorum)/Wheat/Leaf Disc Preventative (Glume Blotch) Wheat leaf segments cv. Kanzler are placed on agar in a multiwell plate (24-well format) and sprayed with the formulated test compound diluted in water. The leaf disks are inoculated with a spore suspension of the fungus 2 days after application. The inoculated test leaf disks are incubated at 20° C. and 75% relative humidity under a light regime of 12 h light/12 h darkness in a climate cabinet and the activity of a compound is assessed as percent disease control compared to untreated when an appropriate level of disease damage appears in untreated check leaf disks (5-7 days after application).

Monographella nivalis = Monographella nivalis (Microdochium nivale) / liquid culture (foot rot cereals); format: cell-based; conditions: 96 h, photometrically 4-5 days after application, read-out: control of Monographella nivalis
Procedure, shortened: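 Microdochium nivale conidia in potato dextrose broth were added to test compound in DMSO and incubated at 24° C. Growth inhibition was measured photometrically 4-5 days after application.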

Glomerella lagenarium = Glomerella lagenarium (Colletotrichum lagenarium) / liquid culture (anthracnose); format: cell-based; conditions: Colletotrichum orbiculare, 72 h, photometrically 3-4 days after application, read-out: control of Glomerella lagenarium
Procedure, shortened: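 Conidia in potato dextrose broth added to test compound delivered as DMSO solution in microtiter plates; incubation at 24° C. Growth inhibition read photometrically 3-4 days after application.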

[1] = tested on: Mycosphaerella graminicola; assay: Mycosphaerella graminicola (Septoria tritici) / liquid culture (Septoria blotch); format: cell-based; conditions: Zymoseptoria tritici, 96 h, photometrically 4-5 days after application, read-out: control of Mycosphaerella graminicola
Procedure, shortened: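 Conidia from cryogenic storage mixed into potato dextrose broth, added to test compound in DMSO. Plates incubated at 24° C; growth inhibition read photometrically 4-5 days after application.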

Alternaria solani = Alternaria solani / tomato / leaf disc (early blight); format: in vivo; conditions: foliar, inoculated 2 days after application, vs untreated control
Procedure: Example B1: Alternaria solani/Tomato/Leaf Disc (Early Blight) Tomato leaf disks cv. Baby are placed on agar in multiwell plates (24-well format) and sprayed with the formulated test compound diluted in water. The leaf disks are inoculated with a spore suspension of the fungus 2 days after application. The inoculated leaf disks are incubated at 23° C./21° C. (day/night) and 80% relative humidity under a light regime of 12 h/12 h (light/dark) in a climate cabinet and the activity of a compound is assessed as percent disease control compared to untreated when an appropriate level of disease damage appears on untreated check disk leaf disks (5-7 days after application).

Mycosphaerella arachidis = Mycosphaerella arachidis (Cercospora arachidicola) / liquid culture (early leaf spot); format: cell-based; conditions: 96 h, photometrically 4-5 days after application, read-out: control of Mycosphaerella arachidis
Procedure, shortened: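 Cryostored M. arachidis conidia in potato dextrose broth were added to compound applied as DMSO solution. Incubated at 24 °C; growth inhibition measured photometrically 4-5 days after application.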

Pyrenophora teres = Pyrenophora teres / barley / leaf disc preventative (net blotch); format: in vivo; conditions: foliar, inoculated 2 days after application
Procedure: Example B16: Pyrenophora teres/Barley/Leaf Disc Preventative (Net Blotch) Barley leaf segments cv. Hasso are placed on agar in a multiwell plate (24-well format) and sprayed with the formulated test compound diluted in water. The leaf segments are inoculated with a spore suspension of the fungus 2 days after application. The inoculated leaf segments are incubated at 20° C. and 65% relative humidity under a light regime of 12 h light/12 h darkness in a climate cabinet and the activity of a compound is assessed as disease control compared to untreated when an appropriate level of disease damage appears in untreated check leaf segments (5-7 days after application).

Cn1cc([C@]2(C)CN(C(=O)c3cc(-c4ccc(F)cc4F)on3)Cc3ccccc32)cn1 (single isomer, unassigned) [Compound P-49]
≥ 80%: inhibition of growth at 20 ppm (Botryotinia fuckeliana) | pest or weed control at 200 ppm (Phaeosphaeria nodorum) | inhibition of growth at 20 ppm (Monographella nivalis) | inhibition of growth at 20 ppm (Glomerella lagenarium) | inhibition of growth at 20 ppm [1]

Cn1cc(C2CN(C(=O)c3cc(-c4ccc(F)cc4F)on3)Cc3ccccc32)cn1 (single isomer, unassigned) [Compound P-142, [5-(2,4-difluorophenyl)isoxazol-3-yl]-[4-(1-methylpyrazol-4-yl)-3,4-dihydro-1H-isoquinolin-2-yl]methanone]
≥ 80%: inhibition of growth at 20 ppm (Botryotinia fuckeliana) | pest or weed control at 200 ppm (Alternaria solani) | inhibition of growth at 20 ppm (Mycosphaerella arachidis) | pest or weed control at 200 ppm (Phaeosphaeria nodorum) | inhibition of growth at 20 ppm (Monographella nivalis) | inhibition of growth at 20 ppm (Glomerella lagenarium) | inhibition of growth at 20 ppm [1]

CON=C(C)C1c2ccccc2C(c2cnn(C)c2)CN1C(=O)c1cc(-c2ccc(F)cc2F)on1 (centres unmarked) [Compound P-10, [5-(2,4-difluorophenyl)isoxazol-3-yl]-[1-(N-methoxy-C-methyl-carbonimidoyl)-4-(1-methylpyrazol-4-yl)-3,4-dihydro-1H-isoquinolin-2-yl]methanone]
≥ 80%: pest or weed control at 200 ppm (Alternaria solani) | pest or weed control at 200 ppm (Phaeosphaeria nodorum) | inhibition of growth at 20 ppm (Glomerella lagenarium) | inhibition of growth at 20 ppm [1]

CON=C(C)c1c(C2CN(C(=O)c3cc(-c4ccc(F)cc4F)on3)Cc3ccccc32)cnn1C (centres unmarked) [Compound P-13, [5-(2,4-difluorophenyl)isoxazol-3-yl]-[4-[5-(N-methoxy-C-methyl-carbonimidoyl)-1-methyl-pyrazol-4-yl]-3,4-dihydro-1H-isoquinolin-2-yl]methanone]
≥ 80%: pest or weed control at 200 ppm (Alternaria solani) | pest or weed control at 200 ppm (Phaeosphaeria nodorum) | inhibition of growth at 20 ppm (Monographella nivalis) | inhibition of growth at 20 ppm [1]

COc1ccc2c(c1)C(C)N(C(=O)c1cc(-c3ccc(F)cc3F)on1)CC2(C)c1cnn(C)c1 (centres unmarked) [Compound P-18, [5-(2,4-difluorophenyl)isoxazol-3-yl]-[7-methoxy-1,4-dimethyl-4-(1-methylpyrazol-4-yl)-1,3-dihydroisoquinolin-2-yl]methanone]
≥ 80%: pest or weed control at 200 ppm (Alternaria solani) | inhibition of growth at 20 ppm (Mycosphaerella arachidis) | inhibition of growth at 20 ppm (Monographella nivalis) | inhibition of growth at 20 ppm (Glomerella lagenarium) | inhibition of growth at 20 ppm [1] | pest or weed control at 200 ppm (Pyrenophora teres)

COc1ccc2c(c1)C(C)(c1cnn(C)c1)CN(C(=O)c1cc(-c3ccc(F)cc3F)on1)C2C (centres unmarked) [Compound P-40, [5-(2,4-difluorophenyl)isoxazol-3-yl]-[6-methoxy-1,4-dimethyl-4-(1-methylpyrazol-4-yl)-1,3-dihydroisoquinolin-2-yl]methanone]
≥ 80%: inhibition of growth at 20 ppm (Mycosphaerella arachidis) | pest or weed control at 200 ppm (Phaeosphaeria nodorum) | inhibition of growth at 20 ppm (Monographella nivalis) | inhibition of growth at 20 ppm [1]

COc1cc(F)ccc1-c1cc(C(=O)N2Cc3ccccc3C(c3cnn(C)c3C)C2)no1 (centres unmarked) [Compound P-46, [4-(1,5-dimethylpyrazol-4-yl)-3,4-dihydro-1H-isoquinolin-2-yl]-[5-(4-fluoro-2-methoxy-phenyl)isoxazol-3-yl]methanone]
≥ 80%: pest or weed control at 200 ppm (Alternaria solani) | inhibition of growth at 20 ppm (Mycosphaerella arachidis) | pest or weed control at 200 ppm (Phaeosphaeria nodorum) | inhibition of growth at 20 ppm (Monographella nivalis) | inhibition of growth at 20 ppm [1]

Cn1cc(C2CN(C(=O)c3nnc(-c4ccccc4F)o3)Cc3ccccc32)cn1 (centres unmarked) [Compound P-54, [5-(2-fluorophenyl)-1,3,4-oxadiazol-2-yl]-[4-(1-methylpyrazol-4-yl)-3,4-dihydro-1H-isoquinolin-2-yl]methanone]
≥ 80%: inhibition of growth at 20 ppm [1] | pest or weed control at 200 ppm (Pyrenophora teres)

Cn1cc(C2CN(C(=O)c3cc(-c4ccc(F)cc4F)on3)Cc3ccc(C#N)cc32)cn1 (centres unmarked) [Compound P-62, 2-[5-(2,4-difluorophenyl)isoxazole-3-carbonyl]-4-(1-methylpyrazol-4-yl)-3,4-dihydro-1H-isoquinoline-6-carbonitrile]
≥ 80%: pest or weed control at 200 ppm (Phaeosphaeria nodorum) | inhibition of growth at 20 ppm (Monographella nivalis) | inhibition of growth at 20 ppm (Glomerella lagenarium) | inhibition of growth at 20 ppm [1]

Cc1nn(C)c(C)c1C1CN(C(=O)c2cc(-c3ccc(F)cc3F)on2)Cc2ccccc21 (centres unmarked) [Compound P-126, [5-(2,4-difluorophenyl)isoxazol-3-yl]-[4-(1,3,5-trimethylpyrazol-4-yl)-3,4-dihydro-1H-isoquinolin-2-yl]methanone]
≥ 80%: pest or weed control at 200 ppm (Alternaria solani) | inhibition of growth at 20 ppm (Mycosphaerella arachidis) | inhibition of growth at 20 ppm (Monographella nivalis) | inhibition of growth at 20 ppm (Glomerella lagenarium) | inhibition of growth at 20 ppm [1] | pest or weed control at 200 ppm (Pyrenophora teres)

Cn1cc(C2CN(C(=O)c3cc(-c4ccccc4)no3)Cc3ccccc32)cn1 (centres unmarked) [Compound P-158, [4-(1-methylpyrazol-4-yl)-3,4-dihydro-1H-isoquinolin-2-yl]-(3-phenylisoxazol-5-yl)methanone]
≥ 80%: inhibition of growth at 20 ppm (Botryotinia fuckeliana) | pest or weed control at 200 ppm (Alternaria solani) | inhibition of growth at 20 ppm (Mycosphaerella arachidis) | inhibition of growth at 20 ppm (Monographella nivalis) | inhibition of growth at 20 ppm (Glomerella lagenarium) | inhibition of growth at 20 ppm [1]

Cc1ccc(-c2cc(C(=O)N3Cc4ccccc4C(c4cnn(C)c4)C3)no2)cc1 (centres unmarked) [Compound P-204, [4-(1-methylpyrazol-4-yl)-3,4-dihydro-1H-isoquinolin-2-yl]-[5-(p-tolyl)isoxazol-3-yl]methanone]
≥ 80%: pest or weed control at 200 ppm (Phaeosphaeria nodorum) | inhibition of growth at 20 ppm [1]

Cn1cc([C@@]2(C)CN(C(=O)c3nnc(-c4ccc(F)cc4F)s3)Cc3ccccc32)cn1 [Compound P-209, [5-(2,4-difluorophenyl)-1,3,4-thiadiazol-2-yl]-[(4S)-4-methyl-4-(1-methylpyrazol-4-yl)-1,3-dihydroisoquinolin-2-yl]methanone]
≥ 80%: inhibition of growth at 20 ppm (Botryotinia fuckeliana) | inhibition of growth at 20 ppm (Mycosphaerella arachidis) | inhibition of growth at 20 ppm (Monographella nivalis) | inhibition of growth at 20 ppm (Glomerella lagenarium) | inhibition of growth at 20 ppm [1]

CC1c2ccc(Br)cc2C(C)(c2cnn(C)c2)CN1C(=O)c1cc(-c2ccc(F)cc2F)on1 (centres unmarked) [Compound P-215, [6-bromo-1,4-dimethyl-4-(1-methylpyrazol-4-yl)-1,3-dihydroisoquinolin-2-yl]-[5-(2,4-difluorophenyl)isoxazol-3-yl]methanone]
≥ 80%: inhibition of growth at 20 ppm (Botryotinia fuckeliana) | inhibition of growth at 20 ppm (Mycosphaerella arachidis) | inhibition of growth at 20 ppm (Monographella nivalis) | inhibition of growth at 20 ppm (Glomerella lagenarium) | inhibition of growth at 20 ppm [1]

CCC1(c2cnn(C)c2)CN(C(=O)c2cc(-c3ccc(F)cc3F)on2)Cc2ccccc21 (centres unmarked) [Compound P-221, [5-(2,4-difluorophenyl)isoxazol-3-yl]-[4-ethyl-4-(1-methylpyrazol-4-yl)-1,3-dihydroisoquinolin-2-yl]methanone]
≥ 80%: inhibition of growth at 20 ppm (Mycosphaerella arachidis) | pest or weed control at 200 ppm (Phaeosphaeria nodorum) | inhibition of growth at 20 ppm [1]

Cc1c(C2CN(C(=O)c3noc(-c4ccc(F)cc4F)n3)Cc3ccccc32)cnn1C (centres unmarked) [Compound P-228, [5-(2,4-difluorophenyl)-1,2,4-oxadiazol-3-yl]-[4-(1,5-dimethylpyrazol-4-yl)-3,4-dihydro-1H-isoquinolin-2-yl]methanone]
≥ 80%: pest or weed control at 200 ppm (Alternaria solani) | inhibition of growth at 20 ppm (Mycosphaerella arachidis) | inhibition of growth at 20 ppm (Monographella nivalis) | inhibition of growth at 20 ppm (Glomerella lagenarium) | inhibition of growth at 20 ppm [1] | pest or weed control at 200 ppm (Pyrenophora teres)
